For test [1], the system named is mice spleen lymphoctyes stimulated with Concanavalin A. In words: lymphocyte stimulation test according to Janossy in vitro. Type of test: cell-based. As to conditions: concentrations of 0.01 to 10.0 μg/ml, Concanavalin A stimulated mice spleen lymphocytes.
Another test has as its system ear swelling. In words: Oxazolon test in mice. Type of test: in vivo. Conditions: 5×70 mg/kg p.o. The procedure:
(b) Oxazolon test in mice:
A decrease in the ear swelling is observed upon administration of 5×70 mg/kg p.o. of the compound.

`C/C=C/C[C@@H](C)[C@@H](O)[C@H]1C(=O)N[C@@H](C(C)C)C(=O)N(C)CC(=O)N(C)[C@@H](CC(C)C)C(=O)N[C@@H](C(C)C)C(=O)N(C)[C@@H](CC(C)C)C(=O)N[C@@H](C)C(=O)N[C@H](C)C(=O)N(C)[C@@H](CC(C)C)C(=O)N(C)[C@@H](CC(C)C)C(=O)N(C)[C@@H](C(C)C)C(=O)N1C` [cyclosporin D]: in test [1], the “inhibition of H^3-thymidine incorporation” value is “strong inhibition”, the “inhibition of the blastogenese” value is on record as “strong inhibition” and the “inhibition of the proliferation rate” value is reported as “strong inhibition”. In addition, the ear swelling entry in the test on ear swelling was “decrease”.
As for `CCCC[C@@H](C)[C@@H](O)C1C(=O)N[C@@H](C(C)C)C(=O)N(C)CC(=O)N(C)[C@@H](CC(C)C)C(=O)N[C@@H](C(C)C)C(=O)N(C)[C@@H](CC(C)C)C(=O)N[C@@H](C)C(=O)N[C@H](C)C(=O)N(C)[C@@H](CC(C)C)C(=O)N(C)[C@@H](CC(C)C)C(=O)N(C)[C@@H](C(C)C)C(=O)N1C` (some centres unmarked) [dihydrocyclosporin D], in test [1], the “inhibition of H^3-thymidine incorporation” value is recorded as “strong inhibition”, the “inhibition of the blastogenese” value is reported as “strong inhibition” and the “inhibition of the proliferation rate” value is “strong inhibition”. In addition, the ear swelling entry in the test with ear swelling is reported as “decrease”.
